Measured values reported in patent US20100113613A1, “CYCLOHEXANE POLYALCOHOL FORMULATION FOR TREATMENT OF DISORDERS OF PROTEIN AGGREGATION” (WARATAH PHARMACEUTICALS, priority 2006, published 2010).
Where two headings read alike, the source gives them in different places.

Key:
[1] = Brain penetrance: plasma and CSF pharmacokinetics after single oral doses in dogs; type: in vivo, dog; details: dog
Excerpt: CSF bathes the central nervous system and sits on the inside of the blood brain barrier. Although a centrally-acting drug will still need to penetrate brain tissue to exert an effect, quantification of drug in CSF may provide a gross estimate of brain-penetrance.

[2] = CSF and plasma levels at end of 14 day repeat dose study in dogs; type: in vivo, dog; details: dog, oral, after 14 days dosing; for concentration at 24 h: CSF, read-out: CSF level at 24 h; for concentration at 12 h: plasma, read-out: Plasma level at 12 h
Experimental: CSF was also collected from dogs at the end of the 14 day repeat study upon necropsy (approximately 24 hours after the final dose was administered). Levels of the scyllo-cyclohexanehexyl in CSF increased with dose and followed the profile observed in plasma.

[3] = Single oral and intravenous dose pharmacokinetics, dose range-finding study in beagle dogs; type: in vivo, beagle dog; details: for Tmax: po; for Vd: read-out: VdSS
Experimental: PK of single oral doses of the scyllo-cyclohexanhexyl was also investigated in a preliminary fashion in a dose range-finding study in 5 beagle dogs. […] The Cmax and AUC values increased proportionally with dose, consistent with observations in the larger study. Estimates of t½ ranged from 2 to 5 hours. Neither dose nor route of administration had any clear effect on t½, MRT, Cl/F or Vdss.

in vivo = details: rat, po
Experimental: Three studies were performed to investigate the pharmacokinetics of oral administration of a scyllo-cyclohexanehexyl (Table 1):
Plasma pharmacokinetics (PK) of a scyllo-cyclohexanehexyl in rats was assessed after single oral doses of 15, 50 and 150 mg/kg. After single oral doses in rats, maximum plasma concentration (Cmax) and exposure (AUC0-t) values increased proportionally with dose level of the scyllo-cyclohexanehexyl. Other parameters were unchanged with dose level. The scyllo-cyclohexanehexyl was absorbed rapidly, with mean tmax observed between 1.0 and 2.2 hours post-dose. […] Estimates of mean residence time (MRT) were consistent. Volumes of distribution (Vdss) were large, indicating wide distribution of scyllo-cyclohexanehexyl in rats.

[4] = CSF, single oral dose 240 mg/kg
[5] = PLASMA LEVELS, single oral dose 20 mg/kg
[6] = PLASMA LEVELS, single oral dose 80 mg/kg
[7] = PLASMA LEVELS, single oral dose 240 mg/kg
[8] = beagle, dog, plasma, dogs, single intravenous dose 80 mg/kg
[9] = beagle, dog, plasma, dogs, single intravenous dose 240 mg/kg
[10] = beagle, dog, plasma, dogs, single oral dose 20 mg/kg
[11] = beagle, dog, plasma, dogs, single oral dose 80 mg/kg
[12] = beagle, dog, plasma, dogs, single oral dose 240 mg/kg
[13] = dogs, single intravenous dose 80 mg/kg
[14] = dogs, single intravenous dose 240 mg/kg

## OC1C(O)C(O)C(O)C(O)C1O (centres unmarked) [AZD-103, scyllo-inositol]
[1]; [4]
  AUC(0-inf): 401 ± 204 µg·h/mL
  AUC(0-t): 384 ± 204 µg·h/mL
  Cmax: 67400 ± 28600 ng/mL
  Tmax: 3 ± 1.7 h
[1]; [5]
  AUC(0-inf): 52.7 ± 17.9 µg·h/mL
  AUC(0-t): 42.6 ± 9.6 µg·h/mL
  Cmax: 6100 ± 3600 ng/mL
  Tmax: 2.8 ± 2.2 h
[1]; [6]
  AUC(0-inf): 255 ± 58.6 µg·h/mL
  AUC(0-t): 250 ± 59.3 µg·h/mL
  Tmax: 2.3 ± 1.3 h
[1]; [7]
  AUC(0-inf): 528 ± 74.6 µg·h/mL
  AUC(0-t): 514.5 ± 0.3 µg·h/mL
  Cmax: 101000 ± 17800 ng/mL
  Tmax: 2.3 ± 1.5 h
[2]; Dose 30 mg/kg
  concentration at 24 h: 4000 ng/mL
  concentration at 12 h: 3600 ng/mL
[2]; Dose 100 mg/kg
  concentration at 24 h: 7500 ng/mL
  concentration at 12 h: 5800 ng/mL
[2]; Dose 300 mg/kg
  concentration at 24 h: 10900 ng/mL
  concentration at 12 h: 8200 ng/mL
[3]; beagle, dog, plasma, 20 mg/kg, dogs, single oral dose 20 mg/kg
  Tmax: 1.5 ± 0.6 h
[3]; beagle, dog, plasma, 80 mg/kg, dogs, single oral dose 80 mg/kg
  Tmax: 2 ± 1.2 h
[3]; beagle, dog, plasma, 240 mg/kg, beagle dogs, following an oral dose (20, 80 and 240 mg/kg)
  Tmax: 1.5 to 2 h
[3]; beagle, dog, plasma, 240 mg/kg, dogs, single oral dose 240 mg/kg
  Tmax: 2 ± 1.4 h
[3]; beagle, dog, plasma, dogs, 80 mg/kg dose level, oral vs i.v.
  bioavailability: > 90%
[3]; [8]
  AUC(0-inf): 173 ± 9 µg·h/mL
  AUC(0-t): 167 ± 7 µg·h/mL
  MRT: 4.6 ± 1.2 h
  Vd: 2.1 L/kg
[3]; beagle, dog, plasma, dogs, single intravenous dose 80 mg/kg, read-out: t1/2 (converted)
  half-life: 3.3 ± 0.3 h
[3]; [9]
  AUC(0-inf): 248 ± 25 µg·h/mL
  AUC(0-t): 244 ± 24 µg·h/mL
  MRT: 3.3 ± 0.5 h
  Vd: 3.22 L/kg
[3]; beagle, dog, plasma, dogs, single intravenous dose 240 mg/kg, read-out: t1/2 (converted)
  half-life: 2.3 ± 0.2 h
[3]; [10]
  AUC(0-inf): 51.7 ± 15.7 µg·h/mL
  AUC(0-t): 42.1 ± 8.4 µg·h/mL
  CL/F: 6.97 mL/min/kg
  Cmax: 5900 ± 3100 ng/mL
  MRT: 10.1 ± 5.9 h
[3]; beagle, dog, plasma, dogs, single oral dose 20 mg/kg, read-out: t1/2 (converted)
  half-life: 5 ± 3.9 h
[3]; [11]
  AUC(0-inf): 246 ± 53 µg·h/mL
  AUC(0-t): 243 ± 54 µg·h/mL
  CL/F: 5.63 mL/min/kg
  Cmax: 69000 ± 23500 ng/mL
  MRT: 4.1 ± 0.8 h
[3]; beagle, dog, plasma, dogs, single oral dose 80 mg/kg, read-out: t1/2 (converted)
  half-life: 2 ± 0.3 h
[3]; [12]
  AUC(0-inf): 489 ± 99 µg·h/mL
  AUC(0-t): 477 ± 94 µg·h/mL
  CL/F: 8.45 mL/min/kg
  Cmax: 89500 ± 27800 ng/mL
  MRT: 5.2 ± 0.2 h
[3]; beagle, dog, plasma, dogs, single oral dose 240 mg/kg, read-out: t1/2 (converted)
  half-life: 2 ± 0.4 h
[3]; dog, plasma, other: oral and intravenous (range over both routes), beagle dogs, 20, 80 and 240 mg/kg p.o., 80 and 240 mg/kg i.v., read-out: t½
  half-life: 2 to 5 h
[3]; [13]
  Cp0: 87.2 ± 13.2 µg/mL
  kel: 0.21 ± 0.02 h⁻¹
[3]; [14]
  Cp0: 127.9 ± 19.1 µg/mL
  kel: 0.30 ± 0.02 h⁻¹
[3]; dogs, single oral dose 20 mg/kg
  kel: 0.2 ± 0.2 h⁻¹
[3]; dogs, single oral dose 80 mg/kg
  kel: 0.4 ± 0.1 h⁻¹
[3]; dogs, single oral dose 240 mg/kg
  kel: 0.4 ± 0.1 h⁻¹
In vivo; 15 mg/kg
  AUC(0-inf): 41.9 ± 11.9 µg·h/mL
  AUC(0-t): 39.7 ± 11.3 µg·h/mL
  CL/F: 12.8 mL/min/kg
  Cmax: 13200 ± 2000 ng/mL
  MRT: 3.7 ± 0.5 h
  Tmax: 1 h
  Vd: 2.82 L/kg
  half-life: 2.7 ± 0.6 h
  kel: 0.27 ± 0.07 h⁻¹
In vivo; 50 mg/kg
  AUC(0-inf): 169 ± 31.8 µg·h/mL
  AUC(0-t): 163 ± 29 µg·h/mL
  CL/F: 10.1 mL/min/kg
  Cmax: 45300 ± 7100 ng/mL
  MRT: 3.6 ± 0.6 h
  Tmax: 1.5 ± 0.5 h
  Vd: 2.13 L/kg
  half-life: 2.4 ± 0.2 h
  kel: 0.29 ± 0.02 h⁻¹
In vivo; 150 mg/kg
  AUC(0-inf): 552 ± 154 µg·h/mL
  AUC(0-t): 537 ± 154 µg·h/mL
  CL/F: 9.55 mL/min/kg
  Cmax: 131000 ± 54800 ng/mL
  MRT: 3.9 ± 0.7 h
  Tmax: 2.2 ± 1.5 h
  Vd: 2.24 L/kg
  half-life: 2.1 ± 0.2 h
  kel: 0.33 ± 0.03 h⁻¹
